Consider 21 molecules from publication PMC9516332 (Frontiers in Oncology, 2022).

Each structure is given as a SMILES string. Read-outs that look alike come from different tables or passages of the source.

The target in assay [1] is T1, panel of 255 wild-type kinases (Homo sapiens, UniProt O14757).
T1 sequence (O14757 1-476): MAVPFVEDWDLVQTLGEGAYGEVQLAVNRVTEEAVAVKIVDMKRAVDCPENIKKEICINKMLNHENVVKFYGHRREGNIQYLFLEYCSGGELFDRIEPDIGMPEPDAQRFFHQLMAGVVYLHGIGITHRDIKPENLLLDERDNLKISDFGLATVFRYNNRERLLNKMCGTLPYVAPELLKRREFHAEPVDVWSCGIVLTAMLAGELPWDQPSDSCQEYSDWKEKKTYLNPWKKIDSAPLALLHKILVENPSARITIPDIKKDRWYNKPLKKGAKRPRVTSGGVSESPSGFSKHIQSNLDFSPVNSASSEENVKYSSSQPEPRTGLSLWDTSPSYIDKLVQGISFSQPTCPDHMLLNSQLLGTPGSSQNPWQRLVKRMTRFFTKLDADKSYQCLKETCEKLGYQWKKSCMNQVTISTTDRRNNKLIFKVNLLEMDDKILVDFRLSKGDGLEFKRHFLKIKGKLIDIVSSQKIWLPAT
In words: Kinase panel profiling at 1 µmol/L (MSA or IMAP), percentage inhibition. Type of assay: biochemical. The note with it: read-out: %-inhibition CHK1.

Assay [2] concerns the target panel of 255 wild-type kinases (Homo sapiens, UniProt P29317). The description is as above. Type of assay: biochemical. The note with it: read-out: %-inhibition at 1 µmol/L, EPHA2.
Assay [3] has as its target panel of 255 wild-type kinases (Homo sapiens, UniProt Q13557). The description is as above. In kind it is biochemical. The conditions noted are these: read-out: %-inhibition CaMK2δ.
Assay [4] deals with T2, panel of 255 wild-type kinases (Homo sapiens, UniProt Q96KB5).
T2 sequence (Q96KB5 1-322): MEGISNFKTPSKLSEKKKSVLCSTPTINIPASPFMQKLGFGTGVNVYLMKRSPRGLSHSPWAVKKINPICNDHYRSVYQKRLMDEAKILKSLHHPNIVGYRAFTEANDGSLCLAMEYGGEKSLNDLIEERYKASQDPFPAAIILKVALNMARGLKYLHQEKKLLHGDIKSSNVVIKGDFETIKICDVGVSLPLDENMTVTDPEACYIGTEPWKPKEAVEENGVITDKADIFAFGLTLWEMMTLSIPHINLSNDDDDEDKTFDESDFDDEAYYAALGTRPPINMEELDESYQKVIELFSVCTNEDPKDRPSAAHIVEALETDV
Described as above. Type of assay: biochemical. The conditions noted are these: read-out: %-inhibition at 1 µmol/L, PBK.

Assay [5] addresses panel of 255 wild-type kinases (Homo sapiens, UniProt Q9P0L2). The description is as above. Type of assay: biochemical. The conditions noted are these: read-out: %-inhibition, MARK1.
For assay [6], the target named is panel of 255 wild-type kinases (Homo sapiens, UniProt P27448). The conditions noted are these: MARK3; 1 µmol/L single concentration; ref DOI: 10.1371/journal.pone.0092146; cited from earlier work.
In assay [7] the target is panel of 255 wild-type kinases (Homo sapiens, UniProt P53779). The note with it: kinase JNK3; 1 µmol/L single concentration; ref DOI: 10.1371/journal.pone.0092146; cited from earlier work.
[8] abbreviates: CHK1 kinase assay, 1 µmol/L single concentration.
The mark [9] stands for this setting: kinase EPHA2, 1 µmol/L single concentration.
[10] abbreviates: CaMK2δ kinase assay, 1 µmol/L single concentration.
Setting [11] is: kinase PBK, 1 µmol/L single concentration.
The mark [12] stands for this setting: MARK1, 1 µmol/L single concentration.

Consider `Cc1nc(NC(=O)N2CCC[C@H]2C(N)=O)sc1-c1ccnc(C(C)(C)C(F)(F)F)c1` [alpelisib], for which the inhibition at 1 µM in assay [1] (setting [8]) was 11%; in assay [2] (setting [9]), -6%; in assay [3] (setting [10]), 0.814%; in assay [4] (setting [11]) it was -1.24%; in assay [5] (setting [12]), -0.158%.

`Cn1cc(-c2cc3c(N4CCN(c5ncc([C@@](C)(N)c6ccc(F)cc6)cn5)CC4)ncnn3c2)cn1` [avapritinib]: the inhibition at 1 µM was 40% in assay [1] (setting [8]); 60% in assay [2] (setting [9]); -2.56% in assay [3] (setting [10]); -3% in assay [4] (setting [11]); -10% in assay [5] (setting [12]).

Consider `Cn1cnc2c(F)c(Nc3ccc(Br)cc3F)c(C(=O)NOCCO)cc21` [binimetinib], for which the inhibition at 1 µM in assay [1] (setting [8]) is 9%; in assay [2] (setting [9]) it was 9%; in assay [3] (setting [10]), -4%; in assay [4] (setting [11]) it was 0.203%; in assay [5] (setting [12]), 0.905%.

As to `CNC(=O)c1ccc(-c2cnc3ncc(Cc4ccc5ncccc5c4)n3n2)cc1F` [capmatinib], the inhibition at 1 µM in assay [1] was 0.209%; in assay [2], -1%; in assay [3] it was -1.07%; in assay [4], -4%; in assay [5], -5.32%.

In the case of `CC(C)(C)c1nc(-c2cccc(NS(=O)(=O)c3c(F)cccc3F)c2F)c(-c2ccnc(N)n2)s1` [dabrafenib], the “%-inhibition, MARK3” value in assay [6] is given as 4%. For the same molecule, the “%-inhibition at 1 µmol/L, JNK3” value in assay [7] is listed as 5.59%.

`COc1cc2ncnc(Nc3ccc(F)c(Cl)c3)c2cc1NC(=O)/C=C/CN1CCCCC1` [dacomitinib]: the inhibition at 1 µM in assay [1] (setting [8]) was 10%; in assay [2] (setting [9]), 14%; in assay [3] (setting [10]), 9%; in assay [4] (setting [11]), -3.28%; in assay [5] (setting [12]) it was -2%.

Consider `C[C@H](Nc1ncnc2nc[nH]c12)c1cc2cccc(Cl)c2c(=O)n1-c1ccccc1` [duvelisib], for which the inhibition at 1 µM is 5.69% in assay [1] (setting [8]); -6.36% in assay [2] (setting [9]); 4% in assay [3] (setting [10]); -1.84% in assay [4] (setting [11]); 4.47% in assay [5] (setting [12]).

`COC(=O)N[C@@H](C)CNc1nccc(-c2cn(C(C)C)nc2-c2cc(Cl)cc(NS(C)(=O)=O)c2F)n1` [encorafenib]: the inhibition at 1 µM in assay [1] (setting [8]) is 14%; in assay [2] (setting [9]), 9%; in assay [3] (setting [10]), -2.79%; in assay [4] (setting [11]) it was 8%; in assay [5] (setting [12]) it was 2.71%.

For `CN1CCN(c2ccc(C(=O)Nc3n[nH]c4ccc(Cc5cc(F)cc(F)c5)cc34)c(NC3CCOCC3)c2)CC1` [entrectinib], the inhibition at 1 µM is 14% in assay [1] (setting [8]); 37% in assay [2] (setting [9]); 28% in assay [3] (setting [10]); -5.43% in assay [4] (setting [11]); 19% in assay [5] (setting [12]).

With `CCc1nc(C(N)=O)c(Nc2ccc(N3CCC(N4CCN(C)CC4)CC3)c(OC)c2)nc1NC1CCOCC1` [gilteritinib], the inhibition at 1 µM in assay [1] (setting [8]) was 22%; in assay [2] (setting [9]) it was 66%; in assay [3] (setting [10]), 84%; in assay [4] (setting [11]), -2.54%; in assay [5] (setting [12]) it was 27%.

Regarding `CCN1CCN(c2ccc(Nc3cc(N(C)C(=O)Nc4c(Cl)c(OC)cc(OC)c4Cl)ncn3)cc2)CC1` [infigratinib], the inhibition at 1 µM in assay [1] (setting [8]) was -1.07%; in assay [2] (setting [9]), 0.318%; in assay [3] (setting [10]), -1.48%; in assay [4] (setting [11]), -1.71%; in assay [5] (setting [12]), -9%.

Consider `O=C(Nc1cnn2ccc(N3CCC[C@@H]3c3cc(F)ccc3F)nc12)N1CC[C@H](O)C1` [larotrectinib], for which the inhibition at 1 µM was 14% in assay [1] (setting [8]); 0% in assay [2] (setting [9]); 6% in assay [3] (setting [10]); -5.44% in assay [4] (setting [11]); -6.38% in assay [5] (setting [12]).

For the molecule `C[C@H]1Oc2cc(cnc2N)-c2c(nn(C)c2C#N)CN(C)C(=O)c2ccc(F)cc21` [lorlatinib], the inhibition at 1 µM was 12% in assay [1] (setting [8]); 45% in assay [2] (setting [9]); 36% in assay [3] (setting [10]); 1.39% in assay [4] (setting [11]); 11% in assay [5] (setting [12]).

Consider `CCN1C(=O)N(c2c(F)c(OC)cc(OC)c2F)Cc2cnc3[nH]c(CN4CCOCC4)cc3c21` [pemigatinib], for which the inhibition at 1 µM in assay [1] (setting [8]) is 12%; in assay [2] (setting [9]), -3.69%; in assay [3] (setting [10]), 11%; in assay [4] (setting [11]) it was -5.57%; in assay [5] (setting [12]), 57%.

With `FC(F)(F)c1ccc(CNc2ccc(Cc3c[nH]c4ncc(Cl)cc34)cn2)cn1` [pexidartinib], the inhibition at 1 µM in assay [1] (setting [8]) is 5.6%; in assay [2] (setting [9]) it was 7.59%; in assay [3] (setting [10]), 5.41%; in assay [4] (setting [11]), -1.68%; in assay [5] (setting [12]) it was 3%.

In the case of `CO[C@]1(C(=O)N[C@@H](C)c2ccc(-n3cc(F)cn3)nc2)CC[C@H](c2nc(C)cc(Nc3cc(C)[nH]n3)n2)CC1` [pralsetinib], the inhibition at 1 µM in assay [1] (setting [8]) was 11%; in assay [2] (setting [9]) it was 62%; in assay [3] (setting [10]) it was -1%; in assay [4] (setting [11]), -1.86%; in assay [5] (setting [12]), -13%.

With `CCn1c(=O)c(-c2cc(NC(=O)Nc3ccccc3)c(F)cc2Br)cc2cnc(NC)cc21` [ripretinib], the inhibition at 1 µM is 3.57% in assay [1] (setting [8]); 100% in assay [2] (setting [9]); 0.353% in assay [3] (setting [10]); -4% in assay [4] (setting [11]); -0.571% in assay [5] (setting [12]).

As to `COc1ccc(CN2C3CC2CN(c2ccc(-c4cc(OCC(C)(C)O)cn5ncc(C#N)c45)cn2)C3)cn1` [selpercatinib], the inhibition at 1 µM was 29% in assay [1] (setting [8]); 49% in assay [2] (setting [9]); 1.36% in assay [3] (setting [10]); -7% in assay [4] (setting [11]); 22% in assay [5] (setting [12]).

Take `Cn1cnc2c(F)c(Nc3ccc(Br)cc3Cl)c(C(=O)NOCCO)cc21` [selumetinib]: the inhibition at 1 µM was 2.73% in assay [1] (setting [8]); -1.4% in assay [2] (setting [9]); -3% in assay [3] (setting [10]); -3% in assay [4] (setting [11]); -16% in assay [5] (setting [12]).

With `Cc1cc(Nc2ncnc3ccc(NC4=NC(C)(C)CO4)cc23)ccc1Oc1ccn2ncnc2c1` [tucatinib], the inhibition at 1 µM is 5.71% in assay [1] (setting [8]); 2% in assay [2] (setting [9]); -3% in assay [3] (setting [10]); 1.21% in assay [4] (setting [11]); -7% in assay [5] (setting [12]).

As for `C=CC(=O)N1CCC([C@@H]2CCNc3c(C(N)=O)c(-c4ccc(Oc5ccccc5)cc4)nn32)CC1` [zanubrutinib], the inhibition at 1 µM was 16% in assay [1] (setting [8]); -1.86% in assay [2] (setting [9]); 3% in assay [3] (setting [10]); -4% in assay [4] (setting [11]); -6% in assay [5] (setting [12]).
